Experimental data as given in PubChem BioAssay (NCI).
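A five-concentration, 48-hour dose response in 96-well plates underlies each endpoint, interpolated linearly between surrounding concentrations. Here, GI50 denotes the concentration required for 50% inhibition of growth. At the TGI there is no net growth.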

Tests used:
Assay in all cases: inhibition of tumour cell growth, NCI panel, 48 h
786-0 renal = system: 786-0 renal
A498 renal = system: A498 renal
A549 NSCLC = system: A549 NSCLC
ACHN renal = system: ACHN renal
BT-549 breast = system: BT-549 breast
CAKI-1 renal = system: CAKI-1 renal
CCRF-CEM leukemia = system: CCRF-CEM leukemia
COLO 205 colon = system: COLO 205 colon
DU-145 prostate = system: DU-145 prostate
EKVX NSCLC = system: EKVX NSCLC
HCC-2998 colon = system: HCC-2998 colon
HCT-116 colon = system: HCT-116 colon
HCT-15 colon = system: HCT-15 colon
HL-60(TB) leukemia = system: HL-60(TB) leukemia
HOP-62 NSCLC = system: HOP-62 NSCLC
HOP-92 NSCLC = system: HOP-92 NSCLC
HS 578T breast = system: HS 578T breast
HT29 colon = system: HT29 colon
IGROV1 ovarian = system: IGROV1 ovarian
K-562 leukemia = system: K-562 leukemia
KM12 colon = system: KM12 colon
LOX IMVI melanoma = system: LOX IMVI melanoma
M14 melanoma = system: M14 melanoma
MALME-3M melanoma = system: MALME-3M melanoma
MCF7 breast = system: MCF7 breast
MDA-MB-231 breast = system: MDA-MB-231 breast
MDA-MB-435 = system: MDA-MB-435
MOLT-4 leukemia = system: MOLT-4 leukemia
NCI-H226 lung = system: NCI-H226 lung
NCI-H23 lung = system: NCI-H23 lung
NCI-H460 lung = system: NCI-H460 lung
NCI-H522 lung = system: NCI-H522 lung
NCI/ADR-RES ovarian = system: NCI/ADR-RES ovarian
OVCAR-3 ovarian = system: OVCAR-3 ovarian
OVCAR-4 ovarian = system: OVCAR-4 ovarian
OVCAR-5 ovarian = system: OVCAR-5 ovarian
OVCAR-8 ovarian = system: OVCAR-8 ovarian
PC-3 prostate = system: PC-3 prostate
RPMI-8226 leukemia = system: RPMI-8226 leukemia
RXF 393 renal = system: RXF 393 renal
SF-268 CNS = system: SF-268 CNS
SF-295 CNS = system: SF-295 CNS
SF-539 CNS = system: SF-539 CNS
SK-MEL-2 melanoma = system: SK-MEL-2 melanoma
SK-MEL-28 melanoma = system: SK-MEL-28 melanoma
SK-MEL-5 melanoma = system: SK-MEL-5 melanoma
SK-OV-3 ovarian = system: SK-OV-3 ovarian
SN12C renal = system: SN12C renal
SNB-19 CNS = system: SNB-19 CNS
SNB-75 CNS = system: SNB-75 CNS
SW-620 colon = system: SW-620 colon
T-47D breast = system: T-47D breast
TK-10 renal = system: TK-10 renal
U251 CNS = system: U251 CNS
UACC-257 melanoma = system: UACC-257 melanoma
UACC-62 melanoma = system: UACC-62 melanoma
UO-31 renal = system: UO-31 renal

Question: Which results are given for `CN([O-])c1nc(N(C)[O-])nc(N2CCOCC2)n1.CN([O-])c1nc(N(C)[OH2+])nc(N2CCOCC2)n1.[Fe+3]`?
Answer: GI50 (786-0 renal): > 100 µM; TGI (786-0 renal): > 100 µM; GI50 (A498 renal): 0.0197 µM; TGI (A498 renal): > 100 µM; GI50 (A549 NSCLC): > 100 µM; TGI (A549 NSCLC): > 100 µM; GI50 (ACHN renal): > 100 µM; TGI (ACHN renal): > 100 µM; GI50 (BT-549 breast): > 100 µM; TGI (BT-549 breast): > 100 µM; GI50 (CAKI-1 renal): > 100 µM; TGI (CAKI-1 renal): > 100 µM; GI50 (CCRF-CEM leukemia): > 100 µM; TGI (CCRF-CEM leukemia): > 100 µM; GI50 (COLO 205 colon): > 100 µM; TGI (COLO 205 colon): > 100 µM; GI50 (DU-145 prostate): > 100 µM; TGI (DU-145 prostate): > 100 µM; GI50 (EKVX NSCLC): > 100 µM; TGI (EKVX NSCLC): > 100 µM; GI50 (HCC-2998 colon): > 100 µM; TGI (HCC-2998 colon): > 100 µM; GI50 (HCT-116 colon): 96.6 µM; TGI (HCT-116 colon): > 100 µM; GI50 (HCT-15 colon): > 100 µM; TGI (HCT-15 colon): > 100 µM; GI50 (HL-60(TB) leukemia): > 100 µM; TGI (HL-60(TB) leukemia): > 100 µM; GI50 (HOP-62 NSCLC): 89.6 µM; TGI (HOP-62 NSCLC): > 100 µM; GI50 (HOP-92 NSCLC): 0.487 µM; TGI (HOP-92 NSCLC): > 100 µM; GI50 (HS 578T breast): > 100 µM; TGI (HS 578T breast): > 100 µM; GI50 (HT29 colon): > 100 µM; TGI (HT29 colon): > 100 µM; GI50 (IGROV1 ovarian): > 100 µM; TGI (IGROV1 ovarian): > 100 µM; GI50 (K-562 leukemia): 48.6 µM; TGI (K-562 leukemia): > 100 µM; GI50 (KM12 colon): 57.1 µM; TGI (KM12 colon): > 100 µM; GI50 (LOX IMVI melanoma): 15.5 µM; TGI (LOX IMVI melanoma): 36 µM; GI50 (M14 melanoma): 41.5 µM; TGI (M14 melanoma): > 100 µM; GI50 (MALME-3M melanoma): 54.9 µM; TGI (MALME-3M melanoma): > 100 µM; GI50 (MCF7 breast): > 100 µM; TGI (MCF7 breast): > 100 µM; GI50 (MDA-MB-231 breast): > 100 µM; TGI (MDA-MB-231 breast): > 100 µM; GI50 (MDA-MB-435): 61.8 µM; TGI (MDA-MB-435): > 100 µM; GI50 (MOLT-4 leukemia): > 100 µM; TGI (MOLT-4 leukemia): > 100 µM; GI50 (NCI-H226 lung): > 100 µM; TGI (NCI-H226 lung): > 100 µM; GI50 (NCI-H23 lung): > 100 µM; TGI (NCI-H23 lung): > 100 µM; GI50 (NCI-H460 lung): 18.3 µM; TGI (NCI-H460 lung): 34.4 µM; GI50 (NCI-H522 lung): 23.8 µM; TGI (NCI-H522 lung): 94.7 µM; GI50 (NCI/ADR-RES ovarian): > 100 µM; TGI (NCI/ADR-RES ovarian): > 100 µM; GI50 (OVCAR-3 ovarian): > 100 µM; TGI (OVCAR-3 ovarian): > 100 µM; GI50 (OVCAR-4 ovarian): > 100 µM; TGI (OVCAR-4 ovarian): > 100 µM; GI50 (OVCAR-5 ovarian): > 100 µM; TGI (OVCAR-5 ovarian): > 100 µM; GI50 (OVCAR-8 ovarian): > 100 µM; TGI (OVCAR-8 ovarian): > 100 µM; GI50 (PC-3 prostate): > 100 µM; TGI (PC-3 prostate): > 100 µM; GI50 (RPMI-8226 leukemia): > 100 µM; TGI (RPMI-8226 leukemia): > 100 µM; GI50 (RXF 393 renal): 68.3 µM; TGI (RXF 393 renal): > 100 µM; GI50 (SF-268 CNS): 57.4 µM; TGI (SF-268 CNS): > 100 µM; GI50 (SF-295 CNS): 57.6 µM; TGI (SF-295 CNS): > 100 µM; GI50 (SF-539 CNS): > 100 µM; TGI (SF-539 CNS): > 100 µM; GI50 (SK-MEL-2 melanoma): 81.8 µM; TGI (SK-MEL-2 melanoma): > 100 µM; GI50 (SK-MEL-28 melanoma): 84.8 µM; TGI (SK-MEL-28 melanoma): > 100 µM; GI50 (SK-MEL-5 melanoma): > 100 µM; TGI (SK-MEL-5 melanoma): > 100 µM; GI50 (SK-OV-3 ovarian): > 100 µM; TGI (SK-OV-3 ovarian): > 100 µM; GI50 (SN12C renal): > 100 µM; TGI (SN12C renal): > 100 µM; GI50 (SNB-19 CNS): > 100 µM; TGI (SNB-19 CNS): > 100 µM; GI50 (SNB-75 CNS): > 100 µM; TGI (SNB-75 CNS): > 100 µM; GI50 (SW-620 colon): > 100 µM; TGI (SW-620 colon): > 100 µM; GI50 (T-47D breast): > 100 µM; TGI (T-47D breast): > 100 µM; GI50 (TK-10 renal): > 100 µM; TGI (TK-10 renal): > 100 µM; GI50 (U251 CNS): 27.5 µM; TGI (U251 CNS): > 100 µM; GI50 (UACC-257 melanoma): > 100 µM; TGI (UACC-257 melanoma): > 100 µM; GI50 (UACC-62 melanoma): > 100 µM; TGI (UACC-62 melanoma): > 100 µM; GI50 (UO-31 renal): > 100 µM; TGI (UO-31 renal): > 100 µM
